Tests used:
barnyardgrass [1] = assay: Test Example 1: foliage treatment, upland pot test; type: in vivo, Echinochloa crus-galli L.; settings: active ingredient 500 g/ha, observed 18th to 23rd day, 0 = non-treated, 100 = complete kill
In short: (§1)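 Upland pot test, foliar. Soybean 0.1–0.4 / wheat 1.3–2.4 / rice 1.2–2.6 / barnyardgrass 1.3–2.8 leaf stage at spraying; 500 L/ha carrier, 0.1% (v/v) spreader. Visual % control, 0 untreated to 100 dead, days 18–23.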

green foxtail [2] = assay: Test Example 1: foliage treatment, upland pot test; type: in vivo, Setaria viridis L.; settings: active ingredient 500 g/ha, observed 18th to 23rd day, 0 = non-treated, 100 = complete kill
redroot pigweed [3] = assay: Test Example 1: foliage treatment, upland pot test; type: in vivo, Amaranthus retroflexus L.; settings: active ingredient 500 g/ha, observed 18th to 23rd day, 0 = non-treated, 100 = complete kill
prickly sida [4] = assay: Test Example 1: foliage treatment, upland pot test; type: in vivo, Sida spinosa L.; settings: active ingredient 500 g/ha, observed 18th to 23rd day, 0 = non-treated, 100 = complete kill
velvetleaf [5] = assay: Test Example 1: foliage treatment, upland pot test; type: in vivo, Abutilon theophrasti MEDIC.; settings: active ingredient 500 g/ha, observed 18th to 23rd day, 0 = non-treated, 100 = complete kill
rice [6] = assay: Test Example 1: foliage treatment, upland pot test; type: in vivo, Oryza sativa L.; settings: crop, active ingredient 500 g/ha, observed 18th to 23rd day, 0 = non-treated, 100 = complete kill
In short: as §1

wheat [7] = assay: Test Example 1: foliage treatment, upland pot test; type: in vivo, Triticum spp.; settings: crop, active ingredient 500 g/ha, observed 18th to 23rd day, 0 = non-treated, 100 = complete kill
Text: Upland field soil was put into a 1/170,000 ha pot, and seed of various plants were sown. Then, when the plants reached predetermined leaf stages ((1) barnyardgrass: 1.3 to 2.8 leaf stages, (2) crabgrass: 1.0 to 2.8 leaf stages, (3) green foxtail: 1.3 to 2.6 leaf stages, (4) redroot pigweed: 0.1 to 1.2 leaf stages, (5) prickly sida: 0.1 to 1.2 leaf stages, (6) velvetleaf: 0.1 to 1.2 leaf stages, (7) tall morningglory: 0.1 to 1.5 leaf stages, (8) rice: 1.2 to 2.6 leaf stages, (9) wheat: 1.3 to 2.4 leaf stages, (10) corn, 2.1 to 3.2 leaf stages, (11) soybean: 0.1 to 0.4 leaf stage), a wettable powder or emulsifiable concentrate having the compound of the present invention formulated in accordance with a usual formulation method, was weighed so that the active ingredient would be a predetermined amount, and diluted with water in an amount of 500 L/ha. To the diluted solution, 0.1% (v/v) of agricultural spreader was added. The herbicide thus adjusted was applied by a small size sprayer for foliage treatment. On the 18th to 23rd days after the application of the herbicide, the growth of the respective plants was visually observed, and the herbicidal effects were evaluated by the growth controlling degrees (%) ranging from 0 (equivalent to the non-treated plot) to 100 (complete kill), whereby the results shown in Table 3, were obtained.

soybean [8] = assay: Test Example 1: foliage treatment, upland pot test; type: in vivo, Glycine max Merr.; settings: crop, active ingredient 500 g/ha, observed 18th to 23rd day, 0 = non-treated, 100 = complete kill
In short: as §1

barnyardgrass [9] = assay: Test Example 2: soil surface treatment, upland pot test; type: in vivo, Echinochloa crus-galli L.; settings: active ingredient 500 g/ha, observed 20th to 28th day
In short: (§2)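 Visual growth-control ratings, from 0 (like the non-treated plot) to 100 (total kill), were made between days 20 and 28 after a soil-surface spray. The compound, formulated as wettable powder or emulsifiable concentrate and diluted at 1,500 L/ha, went on one day post-sowing in upland-soil pots of 1/170,000 ha.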

crabgrass [10] = assay: as above; type: in vivo, Digitaria sanguinalis L.; settings: active ingredient 500 g/ha, observed 20th to 28th day
In short: as §2

green foxtail [11] = assay: as above; type: in vivo, Setaria viridis L.; settings: active ingredient 500 g/ha, observed 20th to 28th day
In short: as §2

redroot pigweed [12] = assay: as above; type: in vivo, Amaranthus retroflexus L.; settings: active ingredient 500 g/ha, observed 20th to 28th day
In short: as §2

prickly sida [13] = assay: as above; type: in vivo, Sida spinosa L.; settings: active ingredient 500 g/ha, observed 20th to 28th day
In short: as §2

velvetleaf [14] = assay: as above; type: in vivo, Abutilon theophrasti MEDIC.; settings: active ingredient 500 g/ha, observed 20th to 28th day
In short: as §2

rice [15] = assay: as above; type: in vivo, Oryza sativa L.; settings: active ingredient 500 g/ha, observed 20th to 28th day
In short: as §2

wheat [16] = assay: as above; type: in vivo, Triticum spp.; settings: active ingredient 500 g/ha, observed 20th to 28th day
In short: as §2

corn [17] = assay: as above; type: in vivo, Zea mays L.; settings: active ingredient 500 g/ha, observed 20th to 28th day
In short: as §2

barnyardgrass [18] = assay: Test Example 3: paddy pot test, application under submerged conditions; type: in vivo, Echinochloa crus-galli L.; settings: submerged application at 0.5 leaf stage, visually observed 14 days after application, 0 = non-treated, 100 = complete kill
In short: (§3)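 Barnyardgrass and japanese bulrush sown in flooded paddy soil in greenhouse pots, japanese ribbon wapato tubers planted 1–2 days later; water depth kept at 3–4 cm. Diluted wettable powder or emulsifiable concentrate applied into water at 0.5-leaf or primary-leaf stage at set active-ingredient doses. Growth control scored visually at 14 days, 0 (untreated) to 100% (complete kill).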

japanese bulrush = assay: as above; type: in vivo, Scirpus juncoides; settings: submerged application at 0.5 leaf stage, visually observed 14 days after application, 0 = non-treated, 100 = complete kill
In short: as §3

rice (var. Nihonbare) = assay: Test Example 3: paddy pot test, transplanted rice; type: in vivo, Oryza sativa L.; settings: applied 4th day after transplantation, visually observed 21st day after application, 0 = non-treated, 100 = complete kill
In short: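 Rice (var. Nihonbare) at 2 leaf stage transplanted 3 cm deep into puddled paddy soil under 3–4 cm flooding; on day 4 after transplanting, diluted wettable powder or emulsifiable concentrate applied by pipette under submerged conditions at a set active-ingredient dose. Growth scored visually 21 days after application, 0 (untreated) to 100 (complete kill) %.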

crabgrass [19] = assay: Test Example 1: foliage treatment, upland pot test; type: in vivo, Digitaria sanguinalis L.; settings: active ingredient 500 g/ha, observed 18th to 23rd day, 0 = non-treated, 100 = complete kill
corn [20] = assay: Test Example 1: foliage treatment, upland pot test; type: in vivo, Zea mays L.; settings: crop, active ingredient 500 g/ha, observed 18th to 23rd day, 0 = non-treated, 100 = complete kill
In short: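 Corn seeds were sown in upland field soil held in a 1/170,000 ha pot and grown to the 2.1 to 3.2 leaf stage. A wettable powder or emulsifiable concentrate of the test compound was diluted with water at 500 L/ha, given 0.1% (v/v) agricultural spreader, and sprayed onto the foliage with a small sprayer. Growth controlling degree (%) was scored visually 18th to 23rd days later, from 0 (non-treated) to 100 (complete kill).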

soybean [21] = assay: Test Example 2: soil surface treatment, upland pot test; type: in vivo, Glycine max Merr.; settings: active ingredient 500 g/ha, observed 20th to 28th day
In short: as §2

japanese ribbon wapato = assay: Test Example 3: paddy pot test, application under submerged conditions; type: in vivo, Sagittaria pygniaea; settings: active ingredient 500 g/ha; submerged application at primary leaf stage; visually observed 14 days after application; 0 = non-treated, 100 = complete kill
In short: as §3

Structure (SMILES)	Growth controlling degree (%) Barnyardgrass (barnyardgrass [1]) [%]	Growth controlling degree (%) Green foxtail (green foxtail [2]) [%]	Growth controlling degree (%) Redroot pigweed (redroot pigweed [3]) [%]	Growth controlling degree (%) Prickly sida (prickly sida [4]) [%]	Growth controlling degree (%) Velvetleaf (velvetleaf [5]) [%]	Growth controlling degree (%) Rice (rice [6]) [%]	Growth controlling degree (%) wheat (wheat [7]) [%]	Growth controlling degree (%) Soybean (soybean [8]) [%]	Growth controlling degree (%) Barnyardgrass (barnyardgrass [9]) [%]	Growth controlling degree (%) Crabgrass (crabgrass [10]) [%]	Growth controlling degree (%) Green foxtail (green foxtail [11]) [%]	Growth controlling degree (%) Redroot pigweed (redroot pigweed [12]) [%]	Growth controlling degree (%) Prickly sida (prickly sida [13]) [%]	Growth controlling degree (%) Velvetleaf (velvetleaf [14]) [%]	Growth controlling degree (%) Rice (rice [15]) [%]	Growth controlling degree (%) Corn (corn [17]) [%]	Growth controlling degree (%) Barnyardgrass (barnyardgrass [18]; active ingredient 500 g/ha) [%]	Growth controlling degree (%) Japanese bulrush (japanese bulrush; active ingredient 500 g/ha) [%]	Growth controlling degree (%) Rice (rice (var. Nihonbare); active ingredient 500 g/ha) [%]	Growth controlling degree (%) Crabgrass (crabgrass [19]) [%]	also measured
CC(C)C(c1cnccc1C(F)(F)F)N(C)C(=O)Cc1csc2ccccc12 (stereo not drawn) [I-192]	80	60	80	90	70	10	0	80	98	80	80	10	0	0	10	10	100	90	30		Growth controlling degree (%) wheat (wheat [16]): 0%
C=CC(=O)N(C)C(c1cnccc1C(F)(F)F)C(C)C (stereo not drawn) [I-190]	80	80	70	70	60	70	70	60	100	100	100	80	90	50	98	10	100	98	95	80	Growth controlling degree (%) Corn (corn [20]): 70%; Growth controlling degree (%) Soyabean (soybean [21]): 30%; Growth controlling degree (%) Japanese ribbon wapato (japanese ribbon wapato): 90%
CCCC(=O)N(C)C(c1cnccc1C(F)(F)F)C(C)C (stereo not drawn) [I-189, N-methyl-N-[2-methyl-1-(4-trifluoromethylpyridin-3-yl)propyl]butanamide]	90	90	80	85	70	80	70	80	100	100	100	100	90	90	100	50	100	98	95	98	Growth controlling degree (%) Corn (corn [20]): 90%; Growth controlling degree (%) Soyabean (soybean [21]): 95%; Growth controlling degree (%) Japanese ribbon wapato (japanese ribbon wapato): 95%
CC(Oc1ccc(Br)cc1)C(=O)N(C)C(c1cnccc1C(F)(F)F)C(C)C (mixture of isomers) [I-132]	70	60	70	80	60	10	10	80	98	90		10	70	0	10	0				90	Growth controlling degree (%) Corn (corn [20]): 80%; Growth controlling degree (%) wheat (wheat [16]): 10%; Growth controlling degree (%) Soyabean (soybean [21]): 10%; Growth controlling degree (%) Barnyardgrass (barnyardgrass [18]; active ingredient 250 g/ha): 100%; Growth controlling degree (%) Japanese bulrush (japanese bulrush; active ingredient 250 g/ha): 80%; Growth controlling degree (%) Rice (rice (var. Nihonbare); active ingredient 250 g/ha): 20%
COc1ccc(C=CC(=O)N(C)C(c2cnccc2C(F)(F)F)C(C)C)cc1 (stereo not drawn) [I-182]	80	50	50	70	50	20	10	70	90	100	95	30	10	50	50	10	100	98	0	80	Growth controlling degree (%) Corn (corn [20]): 60%; Growth controlling degree (%) Soyabean (soybean [21]): 10%; Growth controlling degree (%) Japanese ribbon wapato (japanese ribbon wapato): 80%

Reference: patent US20050239656A1, “Pyridine compounds or salts thereof and herbicides containing the same” (priority 2002, published 2005)
